This is an account of results in patent publication US20140031368A1, “SELECTIVE HDAC INHIBITORS” (THE TRUSTEES OF COLUMBIA UNIVERSITY IN THE CITY OF NEW YORK, priority 2010, published 2014).

The target in experiment [1] is HDAC1 (Homo sapiens, UniProt Q13547). In words: Fluorogenic HDAC assay kit (BPS Bioscience), HDAC1 inhibition. In kind it is biochemical. As to conditions: purified/recombinant enzyme; inhibitor range 10,000-0.1 nM. The method, then: (§1) Various compounds were tested in in vitro enzyme assays for their activity in inhibiting HDAC6 and HDAC1. The assays used was a fluorogenic HDAC assay kit (BPS Bioscience, San Diego, Calif.). On a micotiter the HDAC fluorometric substrate containing an aceylated side chain is incubated with a sample containing HDAC activity (purified/recombinant HDAC1 or HDAC6 enzyme). The deacetylation sensitizes the substrate so subsequent treatment with a lysine developer produces a fluorophore that can then be measured using a fluorescence reader. The assay is performed in the absence and presence of the potential inhibitor compound.
(§2) Follow BPS Bioscience Fluorogenic HDAC Assay Kit (see Example 2). Range of inhibitor compounds tested: 10,000-0.1 nM

Experiment [2] has as its target T1, HDAC6 (Homo sapiens, UniProt Q9UBN7).
T1 sequence (Q9UBN7 1-1215): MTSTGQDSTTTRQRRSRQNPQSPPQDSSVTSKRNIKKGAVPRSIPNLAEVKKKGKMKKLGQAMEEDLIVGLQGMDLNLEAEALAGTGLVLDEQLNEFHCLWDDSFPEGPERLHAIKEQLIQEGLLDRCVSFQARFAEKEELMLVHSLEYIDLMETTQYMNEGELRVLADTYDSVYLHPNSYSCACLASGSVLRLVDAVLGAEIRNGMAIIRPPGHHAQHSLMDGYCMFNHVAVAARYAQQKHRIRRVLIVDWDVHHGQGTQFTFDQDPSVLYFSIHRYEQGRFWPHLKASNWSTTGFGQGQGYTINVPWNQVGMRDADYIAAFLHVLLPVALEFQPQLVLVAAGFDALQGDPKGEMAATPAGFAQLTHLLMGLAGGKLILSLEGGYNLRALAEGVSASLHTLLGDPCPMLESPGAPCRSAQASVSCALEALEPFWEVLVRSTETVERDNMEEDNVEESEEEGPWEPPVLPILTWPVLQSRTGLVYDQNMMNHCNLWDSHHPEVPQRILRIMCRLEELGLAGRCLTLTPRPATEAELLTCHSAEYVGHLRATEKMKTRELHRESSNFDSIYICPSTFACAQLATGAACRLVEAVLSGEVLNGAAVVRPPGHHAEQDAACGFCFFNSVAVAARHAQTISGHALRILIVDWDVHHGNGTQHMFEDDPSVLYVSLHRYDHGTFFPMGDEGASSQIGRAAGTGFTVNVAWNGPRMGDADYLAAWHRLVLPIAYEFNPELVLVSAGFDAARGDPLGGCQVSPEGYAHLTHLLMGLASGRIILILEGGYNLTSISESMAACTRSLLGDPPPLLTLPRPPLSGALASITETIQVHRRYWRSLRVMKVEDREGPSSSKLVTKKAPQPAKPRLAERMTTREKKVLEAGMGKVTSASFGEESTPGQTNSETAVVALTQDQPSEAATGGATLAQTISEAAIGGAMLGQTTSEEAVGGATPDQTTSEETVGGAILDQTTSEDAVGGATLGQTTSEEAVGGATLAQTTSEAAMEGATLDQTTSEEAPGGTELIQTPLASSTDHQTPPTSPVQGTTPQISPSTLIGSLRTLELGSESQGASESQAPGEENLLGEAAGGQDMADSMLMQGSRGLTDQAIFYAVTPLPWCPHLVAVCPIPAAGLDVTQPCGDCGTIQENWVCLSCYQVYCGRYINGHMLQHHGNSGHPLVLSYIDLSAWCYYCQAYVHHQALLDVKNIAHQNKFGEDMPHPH
The experiment in a line: Fluorogenic HDAC assay kit (BPS Bioscience), HDAC6 inhibition. In kind it is biochemical. The conditions noted are these: for IC50: purified/recombinant enzyme, inhibitor range 10,000-0.1 nM; for IC50 0 ratio (1/6): ratio IC50 HDAC1 / IC50 HDAC6. The method, then:
as §1, §2

Experiment [3] deals with HDAC genes in NPC-26 fibroblasts. In words: qRT-PCR of HDAC gene expression in NPC-26 fibroblasts. Type of experiment: cell-based, human. As to conditions: NPC-26 fibroblasts treated with HDAC inhibitor; FIG. 3B.
For experiment [4], the system named is NP-C mutant fibroblasts. Type of experiment: cell-based, human.
The subject of experiment [5] is NP-C fibroblasts. In words: Esterification of LDL-derived cholesterol (cholesteryl [3H]oleate formation) in NP-C fibroblasts. In kind it is cell-based, human. As to conditions: 24 h treatment with 5 μM SAHA after 4 d in LPDS; FIG. 4B. The method, then:
Cells were grown for 4 d in LPDS, followed by a 24 h treatment with or without 5 μM SAHA, the last 4 h of which included LDL plus [^3H]oleate. *P<0.05, treated vs. untreated cells by two-tailed Student's t-test.

Structures are written as SMILES.

Chain of HDAC1 (Q13547 whole entry): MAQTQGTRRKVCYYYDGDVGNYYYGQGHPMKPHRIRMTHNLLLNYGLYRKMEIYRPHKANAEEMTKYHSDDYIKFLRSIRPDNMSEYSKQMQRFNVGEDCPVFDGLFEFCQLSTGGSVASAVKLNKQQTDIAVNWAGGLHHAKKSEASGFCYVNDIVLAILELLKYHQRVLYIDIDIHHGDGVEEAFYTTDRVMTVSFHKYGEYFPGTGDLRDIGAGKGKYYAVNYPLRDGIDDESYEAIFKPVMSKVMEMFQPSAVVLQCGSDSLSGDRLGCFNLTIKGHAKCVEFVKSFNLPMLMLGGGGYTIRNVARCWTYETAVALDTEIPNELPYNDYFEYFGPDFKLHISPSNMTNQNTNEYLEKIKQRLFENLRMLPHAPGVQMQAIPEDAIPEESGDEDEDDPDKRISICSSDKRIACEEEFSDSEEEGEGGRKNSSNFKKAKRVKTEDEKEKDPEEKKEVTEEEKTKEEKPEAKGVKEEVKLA

Consider `O=C(CCCCCCC(=O)Nc1ccc(C(C(=O)Nc2cccc3cccnc23)C(=O)Nc2cccc3cccnc23)cc1)NO` [Compound 6, N^1-(4-(1,3-Dioxo-1,3-bis(quinolin-8-ylamino)propan-2-yl)phenyl)-N^8-hydroxyoctanediamide], for which the 50% inhibitory concentration (IC50) – broadly, the point on the concentration scale where inhibition reaches its midpoint – in experiment [1] was 242 nM. Besides, in experiment [2], the IC50 was found to be 2.25 nM and the “IC50 0 ratio (1/6)” value is given as 107.
On to `O=C(CCCCCCC(=O)Nc1ccc(C(C(=O)Nc2ccccc2)C(=O)Nc2ccccc2)cc1)NO` [Compound 9, N^1-(4-(1,3-Dioxo-1,3-bis(phenylamino)propan-2-yl)phenyl)-N^8-hydroxyoctanediamide], for which the IC50 in experiment [1] is 129 nM. Moreover, in experiment [2], the half-maximal inhibitory concentration (IC50) amounted to 3 nM and the “IC50 0 ratio (1/6)” value came to 42.9.
Taken in the same sequence, the figures for `O=C(CCCCCCCC(=O)Nc1ccc(C(C(=O)Nc2cccc3cccnc23)C(=O)Nc2cccc3cccnc23)cc1)NO` [Compound 28, N^1-(4-(1,3-dioxo-1,3-bis(quinolin-8-ylamino)propan-2-yl)phenyl)-N^9-hydroxynonanediamide] were 1440 nM, 57 nM and 25.
For `O=C(CCCCCC(=O)Nc1ccc(C(C(=O)Nc2cccc3cccnc23)C(=O)Nc2cccc3cccnc23)cc1)NO` [Compound 31, N^1-(4-(1,3-dioxo-1,3-bis(quinolin-8-ylamino)propan-2-yl)phenyl)-N^7-hydroxyheptanediamide], in that order: 1130 nM, 22 nM and 51.
For `O=C(CCCCCCNC(=O)c1ccc(C(C(=O)Nc2cccc3cccnc23)C(=O)Nc2cccc3cccnc23)cc1)NO` [Compound 61, 2-(4-(7-(hydroxyamino)-7-oxoheptylcarbamoyl)phenyl)-N1,N3-di(quinolin-8-yl)malonamide], the IC50 in experiment [1] is 1040 nM; in experiment [2], 12 nM. Also, the “IC50 0 ratio (1/6)” value in experiment [2] was found to be 87.
For `O=C(CCCCCCNC(=O)c1ccc(C(F)(C(=O)Nc2cccc3cccnc23)C(=O)Nc2cccc3cccnc23)cc1)NO` [Compound 65, 2-Fluoro-2-(4-(7-(hydroxyamino)-7-oxoheptylcarbamoyl)phenyl)-N1,N3-di(quinolin-8-yl)malonamide], in that order: 2450 nM, 42 nM and 58.
As to `CC(C)(C)c1ccc(NC(=O)C(CCCCCC(=O)NO)C(=O)Nc2ccc(C(C)(C)C)cc2)cc1` [Compound 77], the values for the IC50 in experiment [1] and in experiment [2] were 106 nM and 34.4 nM, respectively. Further, the “IC50 0 ratio (1/6)” value in experiment [2] was 3.1.
For `CC(C)(C)c1ccc(CNC(=O)CCCCCCCC(=O)NO)cc1` [Compound 78], in that order: 676 nM, 65.7 nM and 10.3.
Taken in the same sequence, the figures for `CC(C)(C)OC(=O)Nc1ccc(-c2csc(C(=O)NCCCCCCC(=O)NO)c2)cc1` [Compound 79] were 46.7 nM, 4.4 nM and 10.6.
As for `CC(C)(C)OC(=O)Nc1ccc(-c2cc(C(=O)NCCCCCCC(=O)NO)no2)cc1` [Kozikowski compound, reference compound], in experiment [1], the half-inhibitory concentration (IC50) came to 38.4 nM.
For `O=C(CCCCCCC(=O)Nc1ccccc1)NO` [SAHA, suberoylanilide hydroxamic acid], the “HDAC gene expression (qRT-PCR)” value in experiment [3] is “restores expression in the direction of control cells”. Further, the “lysosomal accumulation of unesterified cholesterol (filipin)” value in experiment [4] was “Reduction in lysosomal accumulation of unesterified cholesterol”. Moreover, in experiment [5], the “esterification of LDL-derived cholesterol (percent cholesteryl [3H]oleate formation relative to total lipids)” value is given as “Restoration of deficient esterification of LDL-derived cholesterol”.
